This is an account of results in patent publication US9066938B2, “GPBP-1 inhibition and its therapeutic use” (Fibrostatin S.L., priority 2012, dated 2015).

Structures can show the parent of a compound that is named as a salt.

For one assay, the target named is T1, human recombinant GPBP-1 (Homo sapiens, UniProt Q9Y5P4).
T1 construct: made in house; host or cells: Pichia pastoris
T1 sequence (Q9Y5P4 1-624): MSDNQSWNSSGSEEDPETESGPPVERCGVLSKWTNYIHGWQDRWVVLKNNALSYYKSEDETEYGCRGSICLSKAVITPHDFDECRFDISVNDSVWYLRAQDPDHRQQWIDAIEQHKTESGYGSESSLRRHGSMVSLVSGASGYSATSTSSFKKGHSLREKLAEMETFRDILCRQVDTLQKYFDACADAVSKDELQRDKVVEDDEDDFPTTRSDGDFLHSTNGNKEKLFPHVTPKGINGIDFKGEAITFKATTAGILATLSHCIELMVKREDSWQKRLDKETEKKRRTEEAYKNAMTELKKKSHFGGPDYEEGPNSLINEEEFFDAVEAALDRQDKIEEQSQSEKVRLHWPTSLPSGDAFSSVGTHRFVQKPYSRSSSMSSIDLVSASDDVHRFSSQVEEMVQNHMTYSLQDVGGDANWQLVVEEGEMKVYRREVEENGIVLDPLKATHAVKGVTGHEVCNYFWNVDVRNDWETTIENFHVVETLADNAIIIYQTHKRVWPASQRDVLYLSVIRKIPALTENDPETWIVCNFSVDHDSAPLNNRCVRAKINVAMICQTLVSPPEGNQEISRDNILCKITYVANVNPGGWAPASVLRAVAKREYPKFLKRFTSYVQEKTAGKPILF
Description: GPBP-1 in vitro autophosphorylation (kinase) assay with [γ-32P]ATP. The assay is classed as biochemical. From the text:
To explore the possibility that doxorubicin, an anti-tumor agent targeting topoisomerase II (Pommier et al. 2010), operates through GPBP-1, human recombinant GPBP-1 (Raya et al. 1999) was subjected to in vitro autophosphorylation in the presence or absence of doxorubicin and T12 (FIG. 1A).

A short description of assay [1]: Synergism of T12 with paclitaxel (no details given). The following applies: T12 plus paclitaxel.
Assay [2] has as its system CSC/SP compartment of A549 cell cultures. Description: Side population (CSC/SP) staining with Hoechst 33342, flow cytometry. Type of assay: cell-based, human. To be noted: for cell content of the CSC/SP compartment: single compound. The protocol: FIG. 9. […] A, cultures of A549 cells were incubated with Hoescht 33342 in the absence (−) or presence (+) of verapamil (50 μM) and fumitremorgin C (10 μM). Circled area (R2) denotes the region containing the flow cytometry events representing CSC/SP cells. B, shown are the relative abundance of CSC/SP cells (%) in cell cultures untreated (control) or treated with the indicated compounds.
A549 cells were suspended at 10^6 cells/mL in culture medium containing 10 mM Hepes (previously warmed at 37° C.). Hoechst 33342 was added at 5 μg/mL and cells incubated in a 37° C. bath with shaking for 90 min in the dark. Before incubation (and after staining) an aliquot of 1 mL was taken and verapamil (50 μM) and fumitremorgin C (10 μM) added. Cells were centrifuged at 300×g for 5 min at 4° C. and suspended in cold medium with 10 mM Hepes. Cells were kept at 4° C. until analysis. Analysis of Hoechst 33342 efflux was assessed using a Flow Cytometer with incident 350 nm ultraviolet light. The resulting fluorescence was measured at two wavelengths using 424/44 BP and 675 LP filters that allow detection of Hoechst blue and red, respectively. […] Doxorubicin content in either population was estimated with incident 488 nm blue light and 585/40 filter. Verapamil and fumitremorgin C werer used to identify SP region.
A general note: In flow cytometry, cells or beads pass a laser one at a time.

The subject of assay [3] is ovarian cancer cells (OVCAR-3). Nature of the assay: Response of OVCAR-3 ovarian cancer cells to T12. Type of assay: cell-based. To be noted: cells that did not increase GPBP expression in response to doxorubicin.
Assay [4] deals with PARP cleavage in A549 cells. Nature of the assay: Flow cytometry of cleaved PARP (caspase-3-mediated apoptosis) in A549 cells. Type of assay: cell-based, human. The following applies: doxorubicin 1 μM, T12 50 μM, 36 h. The protocol:
FIG. 5. T12 enhances doxorubicin-induced caspase 3-mediated apoptosis. A549 cells were incubated with doxorubicin (1 μM) and/or T12 (50 μM) for 36 h. Subsequently, cells were stained with a PE conjugated antibody specific for human PARP-cleaved fragments and further analyzed by flow cytometry. Data are expressed as fold respect to untreated control cells. Shown is a representative experiment.
Caspase-3 activation in A549 cells was evaluated by flow cytometry using a human anti-cleaved PARP antibody conjugated to PE (BD Biosciences). Briefly, after treatment, the cells were collected by centrifugation and suspended in Perm/Wash™ (BD Biosciences) buffer for 20 min, washed and then incubated for 30 min with the antibody. Subsequently, the cells were rinsed and further analyzed by flow cytometry (BD FacsVerse™ cytometer, BD Biosciences).

The next assay has as its system A549 xenografts. Description: Mouse xenograft study with A549 tumors. Type of assay: in vivo, nude mice. To be noted: for tumor growth, single compound: doxorubicin 2.5 mg/kg per week i.p. or T12 20 mg/kg per day in drinking water, three weeks. The protocol:
FIG. 11. T12 and doxorubicin are synergistic arresting growth of A549-based tumors. Nude mice bearing A549 xenografts were treated with the indicated compounds as indicated in Methods and Experimental Design. Indicated are the tumor size at the indicated times. […] FIG. 12. T12 and doxorubicin are synergistic necrotizing A549-based tumors. Tumor samples from mice used in FIG. 11 were fixed in formalin, paraffin-embedded, subjected to Masson's trichrome staining and observed by optical microscopy. Necrotic areas are indicated with asterisks. Shown are representative images. FIG. 13. […] Ten-week old nude mice (NMRi-Foxn1^nu/Foxn1^nu) (Janvier) were used for xenograft studies. Three-million A549 cells were suspended in 100 μL of culture medium, mixed with 200 μL Matrigel (BD) and subcutaneously injected on the flank of individual mouse (n=40). Tumor size was periodically measured with a digital caliper and volumes were calculated with the formula […]. […] After three weeks mice were sacrificed, tumor xenografts excised and either fixed with formalin and paraffin-embedded or frozen and RNA extracted. Sections of paraffin-embedded tumor samples were subjected to hematoxylin and eosin and Masson's trichrome standard stainings. Frozen tumor samples were ground with a mortar in liquid nitrogen and total RNA extracted as above indicated.

Where [5] appears, read: 2.5 mg/kg/week doxorubicin and 20 mg/kg/day T12, three weeks.

On to `COc1ccc(-c2ccc(-c3cccc(C)c3)c(C)c2)c(CCC(=O)O)c1` [T12, 3-[4″-methoxy-3,2′-dimethyl-(1,1′;4′,1″)terphenyl-2″-yl] propionic acid], for which the “inhibitory activity on GPBP-1 autophosphorylation in combination with doxorubicin” value at human recombinant GPBP-1 (T12 plus doxorubicin) was “synergistic”. For the same molecule, the “synergism of T12 with paclitaxel” value in assay [1] is “synergistic”. Also, the “CSC/SP compartment relative to untreated cultures, co-treatment” value in assay [2] (doxorubicin and T12 co-treatment) is given as “one fourth”. Also, in assay [2], the “cell content of the CSC/SP compartment” value is listed as “reduction”. The “responsiveness of OVCAR-3 cells to the compound” value in assay [3] was “not responsive”. The “doxorubicin-induced PARP cleavage” value in assay [4] is on record as “enhanced”. Further, the “matrix metalloproteinase 10 (MMP-10) expression in tumors, combined treatment” value in the assay on A549 xenografts (2.5 mg/kg/week doxorubicin and 20 mg/kg/day T12, qPCR) is reported as “lower levels”. Moreover, in the assay on A549 xenografts (setting [5]), the “necrotic areas within the tumors, combined treatment” value is “more extensive” and the “tumor growth, combined administration” value is given as “tumor arrest”. Besides, the “tumor growth, single compound” value in the assay with A549 xenografts is listed as “did not impaired tumor growth”.
Turning to `COc1cccc2c1C(=O)c1c(O)c3c(c(O)c1C2=O)C[C@@](O)(C(=O)CO)C[C@@H]3O[C@H]1C[C@H](N)[C@H](O)[C@H](C)O1` [doxorubicin, doxorubicin hydrochloride, reference compound], the “inhibition of GPBP-1 autophosphorylation” value at human recombinant GPBP-1 (compound alone) is listed as “efficiently inhibited”. Besides, the “cell content of the CSC/SP compartment” value in assay [2] is on record as “reduction”. Besides, the “tumor growth, single compound” value in the assay on A549 xenografts is on record as “did not impaired tumor growth”.
